Laboratory results as given in ChEMBL document CHEMBL4316596, “Antimicrobial Peptides with High Proteolytic Resistance for Combating Gram-Negative Bacteria” (J Med Chem, 2019).

Experiments:
Pseudomonas aeruginosa [1] = assay: Antimicrobial activity against Pseudomonas aeruginosa CICC 21625 clinical isolates after 24 hrs by NCCLS-protocol based assay; assay type: functional; details: CICC 21625, 24 h
Escherichia coli [2] = assay: Bactericidal activity against Escherichia coli UB1005 incubated for 4 hrs followed by culture spread on agar plates and cultured overnight; assay type: functional; details: UB1005, 4 h, read-out: MBC>99.9
Escherichia coli [3] = assay: Bactericidal activity against Escherichia coli ATCC 25922 incubated for 4 hrs followed by culture spread on agar plates and cultured overnight in presence of MgCl2; assay type: functional; details: ATCC 25922, 4 h, read-out: MBC>99.9
Escherichia coli [4] = assay: Bactericidal activity against Escherichia coli ATCC 25922 incubated for 4 hrs followed by culture spread on agar plates and cultured overnight in presence of CaCl2; assay type: functional; details: ATCC 25922, 4 h, read-out: MBC>99.9
Escherichia coli [5] = assay: Antimicrobial activity against Escherichia coli ATCC 25922 after 24 hrs by NCCLS-protocol based assay; assay type: functional; details: ATCC 25922, 24 h
Escherichia coli [6] = assay: Bactericidal activity against Escherichia coli 078 incubated for 4 hrs followed by culture spread on agar plates and cultured overnight; assay type: functional; details: Escherichia coli, 078, 4 h; read-out: MBC>99.9
Salmonella typhimurium [7] = assay: Bactericidal activity against Salmonella typhimurium ATCC 14028 incubated for 4 hrs followed by culture spread on agar plates and cultured overnight; assay type: functional, Salmonella enterica subsp. enterica serovar Typhimurium; details: Salmonella enterica, ATCC 14028, 4 h; read-out: MBC>99.9
Pseudomonas aeruginosa [8] = assay: Antimicrobial activity against Pseudomonas aeruginosa PAO1 after 24 hrs by NCCLS-protocol based assay; assay type: functional; details: PAO1, 24 h
Pseudomonas aeruginosa [9] = assay: Bactericidal activity against Pseudomonas aeruginosa ATCC 27853 incubated for 4 hrs followed by culture spread on agar plates and cultured overnight; assay type: functional; details: ATCC 27853, 4 h, read-out: MBC>99.9
Pseudomonas aeruginosa [10] = assay: Antimicrobial activity against Pseudomonas aeruginosa 26305 clinical isolates after 24 hrs by NCCLS-protocol based assay; assay type: functional; details: Pseudomonas aeruginosa, 26305, 24 h
Klebsiella pneumoniae [11] = assay: Bactericidal activity against Klebsiella pneumoniae incubated for 4 hrs followed by culture spread on agar plates and cultured overnight; assay type: functional; details: read-out: MBC>99.9
Escherichia coli [12] = assay: Bactericidal activity against Escherichia coli ATCC 25922 incubated for 4 hrs followed by culture spread on agar plates and cultured overnight in presence of ZnCl2; assay type: functional; details: ATCC 25922, 4 h, read-out: MBC>99.9
Pseudomonas aeruginosa [13] = assay: Bactericidal activity against Pseudomonas aeruginosa 25349 clinical isolates incubated for 4 hrs followed by culture spread on agar plates and cultured overnight; assay type: functional; details: Pseudomonas aeruginosa, 25349, 4 h; read-out: MBC>99.9
Escherichia coli [14] = assay: Antimicrobial activity against Escherichia coli 078 after 24 hrs by NCCLS-protocol based assay; assay type: functional; details: Escherichia coli, 078, 24 h
Pseudomonas aeruginosa [15] = assay: Antimicrobial activity against Pseudomonas aeruginosa ATCC 27853 after 24 hrs by NCCLS-protocol based assay; assay type: functional; details: ATCC 27853, 24 h
Escherichia coli [16] = assay: Bactericidal activity against Escherichia coli ATCC 25922 incubated for 4 hrs followed by culture spread on agar plates and cultured overnight in presence of NaCl; assay type: functional; details: ATCC 25922, 4 h, read-out: MBC>99.9
Escherichia coli [17] = assay: Bactericidal activity against Escherichia coli ATCC 25922 incubated for 4 hrs followed by culture spread on agar plates and cultured overnight in presence of KCl; assay type: functional; details: ATCC 25922, 4 h, read-out: MBC>99.9
Pseudomonas aeruginosa [18] = assay: Bactericidal activity against Pseudomonas aeruginosa CICC 21630 clinical isolates incubated for 4 hrs followed by culture spread on agar plates and cultured overnight; assay type: functional; details: CICC 21630, 4 h, read-out: MBC>99.9
Escherichia coli [19] = assay: Antimicrobial activity against Escherichia coli K88 after 24 hrs by NCCLS-protocol based assay; assay type: functional; details: K88, 24 h
Escherichia coli [20] = assay: Bactericidal activity against Escherichia coli ATCC 25922 incubated for 4 hrs followed by culture spread on agar plates and cultured overnight; assay type: functional; details: ATCC 25922, 4 h, read-out: MBC>99.9
Pseudomonas aeruginosa [21] = assay: Bactericidal activity against Pseudomonas aeruginosa 26305 clinical isolates incubated for 4 hrs followed by culture spread on agar plates and cultured overnight; assay type: functional; details: Pseudomonas aeruginosa, 26305, 4 h; read-out: MBC>99.9
Escherichia coli [22] = assay: Bactericidal activity against Escherichia coli ATCC 25922 incubated for 4 hrs followed by culture spread on agar plates and cultured overnight in presence of FeCl3; assay type: functional; details: ATCC 25922, 4 h, read-out: MBC>99.9
Acinetobacter baumannii [23] = assay: Antimicrobial activity against Acinetobacter baumannii after 24 hrs by NCCLS-protocol based assay; assay type: functional
Salmonella typhimurium [24] = assay: Bactericidal activity against Salmonella typhimurium C7731 incubated for 4 hrs followed by culture spread on agar plates and cultured overnight; assay type: functional, Salmonella enterica subsp. enterica serovar Typhimurium; details: Salmonella enterica, C7731, 4 h; read-out: MBC>99.9
[25] = Antimicrobial activity against Salmonella pullorum C7913 after 24 hrs by NCCLS-protocol based assay; assay type: functional, Salmonella enterica subsp. enterica serovar Pullorum; details: Salmonella enterica, C7913, 24 h
Pseudomonas aeruginosa [26] = assay: Bactericidal activity against Pseudomonas aeruginosa PAO1 incubated for 4 hrs followed by culture spread on agar plates and cultured overnight; assay type: functional; details: PAO1, 4 h, read-out: MBC>99.9
Escherichia coli [27] = assay: Bactericidal activity against Escherichia coli ATCC 25922 incubated for 4 hrs followed by culture spread on agar plates and cultured overnight in presence of 25% serum albumin; assay type: functional; details: ATCC 25922, 4 h, read-out: MBC>99.9
[28] = Bactericidal activity against Salmonella pullorum C7913 incubated for 4 hrs followed by culture spread on agar plates and cultured overnight; assay type: functional, Salmonella enterica subsp. enterica serovar Pullorum; details: Salmonella enterica, C7913, 4 h; read-out: MBC>99.9
Escherichia coli [29] = assay: Bactericidal activity against Escherichia coli ATCC 25922 incubated for 4 hrs followed by culture spread on agar plates and cultured overnight in presence of 12.5% serum albumin; assay type: functional; details: ATCC 25922, 4 h, read-out: MBC>99.9
Escherichia coli [30] = assay: Antimicrobial activity against Escherichia coli UB1005 after 24 hrs by NCCLS-protocol based assay; assay type: functional; details: UB1005, 24 h
Escherichia coli [31] = assay: Antimicrobial activity against Escherichia coli K99 after 24 hrs by NCCLS-protocol based assay; assay type: functional; details: K99, 24 h
Escherichia coli [32] = assay: Bactericidal activity against Escherichia coli ATCC 25922 incubated for 4 hrs followed by culture spread on agar plates and cultured overnight in presence of 50% serum albumin; assay type: functional; details: ATCC 25922, 4 h, read-out: MBC>99.9
Salmonella typhimurium [33] = assay: Antimicrobial activity against Salmonella typhimurium C7731 after 24 hrs by NCCLS-protocol based assay; assay type: functional, Salmonella enterica subsp. enterica serovar Typhimurium; details: Salmonella enterica, C7731, 24 h
Escherichia coli [34] = assay: Bactericidal activity against Escherichia coli K99 incubated for 4 hrs followed by culture spread on agar plates and cultured overnight; assay type: functional; details: K99, 4 h, read-out: MBC>99.9
Salmonella typhimurium [35] = assay: Antimicrobial activity against Salmonella typhimurium ATCC 14028 after 24 hrs by NCCLS-protocol based assay; assay type: functional, Salmonella enterica subsp. enterica serovar Typhimurium; details: Salmonella enterica, ATCC 14028, 24 h
Escherichia coli [36] = assay: Bactericidal activity against Escherichia coli K88 incubated for 4 hrs followed by culture spread on agar plates and cultured overnight; assay type: functional; details: K88, 4 h, read-out: MBC>99.9
Pseudomonas aeruginosa [37] = assay: Bactericidal activity against Pseudomonas aeruginosa CICC 21625 clinical isolates incubated for 4 hrs followed by culture spread on agar plates and cultured overnight; assay type: functional; details: CICC 21625, 4 h, read-out: MBC>99.9
Pseudomonas aeruginosa [38] = assay: Antimicrobial activity against Pseudomonas aeruginosa CICC 21630 clinical isolates after 24 hrs by NCCLS-protocol based assay; assay type: functional; details: CICC 21630, 24 h
Klebsiella pneumoniae [39] = assay: Antimicrobial activity against Klebsiella pneumoniae after 24 hrs by NCCLS-protocol based assay; assay type: functional
Acinetobacter baumannii [40] = assay: Bactericidal activity against Acinetobacter baumannii incubated for 4 hrs followed by culture spread on agar plates and cultured overnight; assay type: functional; details: read-out: MBC>99.9
Pseudomonas aeruginosa [41] = assay: Antimicrobial activity against Pseudomonas aeruginosa 25349 clinical isolates after 24 hrs by NCCLS-protocol based assay; assay type: functional; details: Pseudomonas aeruginosa, 25349, 24 h
Escherichia coli [42] = assay: Bactericidal activity against Escherichia coli ATCC 25922 incubated for 4 hrs followed by culture spread on agar plates and cultured overnight in presence of NH4Cl; assay type: functional; details: ATCC 25922, 4 h, read-out: MBC>99.9

## H-IKPIIKPIIKPIIKPIIKPIIKPI-NH2
Pseudomonas aeruginosa [1]
  MIC95: > 64 µM
Escherichia coli [2]
  MBC: 32 µM
Escherichia coli [3]
  MBC: > 128 µM
Escherichia coli [4]
  MBC: > 128 µM
Escherichia coli [5]
  MIC95: 16 µM
Escherichia coli [6]
  MBC: > 64 µM
Salmonella typhimurium [7]
  MBC: > 64 µM
Pseudomonas aeruginosa [8]
  MIC95: > 64 µM
Pseudomonas aeruginosa [9]
  MBC: > 64 µM
Pseudomonas aeruginosa [10]
  MIC95: > 64 µM
Klebsiella pneumoniae [11]
  MBC: > 64 µM
Escherichia coli [12]
  MBC: > 128 µM
Pseudomonas aeruginosa [13]
  MBC: > 64 µM
Escherichia coli [14]
  MIC95: 64 µM
Pseudomonas aeruginosa [15]
  MIC95: > 64 µM
Escherichia coli [16]
  MBC: > 128 µM
Escherichia coli [17]
  MBC: > 128 µM
Pseudomonas aeruginosa [18]
  MBC: > 64 µM
Escherichia coli [19]
  MIC95: 4 µM
Escherichia coli [20]
  MBC: 32 µM
Pseudomonas aeruginosa [21]
  MBC: > 64 µM
Escherichia coli [22]
  MBC: > 128 µM
Acinetobacter baumannii [23]
  MIC95: 16 µM
Salmonella typhimurium [24]
  MBC: > 64 µM
[25]
  MIC95: 64 µM
Pseudomonas aeruginosa [26]
  MBC: > 64 µM
Escherichia coli [27]
  MBC: > 128 µM
[28]
  MBC: > 64 µM
Escherichia coli [29]
  MBC: > 128 µM
Escherichia coli [30]
  MIC95: 16 µM
Escherichia coli [31]
  MIC95: 8 µM
Escherichia coli [32]
  MBC: > 128 µM
Salmonella typhimurium [33]
  MIC95: > 64 µM
Escherichia coli [34]
  MBC: 16 µM
Salmonella typhimurium [35]
  MIC95: 64 µM
Escherichia coli [36]
  MBC: 8 µM
Pseudomonas aeruginosa [37]
  MBC: > 64 µM
Pseudomonas aeruginosa [38]
  MIC95: > 64 µM
Klebsiella pneumoniae [39]
  MIC95: > 64 µM
Acinetobacter baumannii [40]
  MBC: 16 µM
Pseudomonas aeruginosa [41]
  MIC95: > 64 µM
Escherichia coli [42]
  MBC: > 128 µM

## H-LKPLLKPLLKPLLKPLLKPLLKPL-NH2
Pseudomonas aeruginosa [1]
  MIC95: 64 µM
Escherichia coli [2]
  MBC: 4 µM
Escherichia coli [3]
  MBC: 16 µM
Escherichia coli [4]
  MBC: > 128 µM
Escherichia coli [5]
  MIC95: 1 µM
Escherichia coli [6]
  MBC: 2 µM
Salmonella typhimurium [7]
  MBC: 8 µM
Pseudomonas aeruginosa [8]
  MIC95: 4 µM
Pseudomonas aeruginosa [9]
  MBC: 4 µM
Pseudomonas aeruginosa [10]
  MIC95: 64 µM
Klebsiella pneumoniae [11]
  MBC: 8 µM
Escherichia coli [12]
  MBC: 2 µM
Pseudomonas aeruginosa [13]
  MBC: 32 µM
Escherichia coli [14]
  MIC95: 2 µM
Pseudomonas aeruginosa [15]
  MIC95: 4 µM
Escherichia coli [16]
  MBC: 16 µM
Escherichia coli [17]
  MBC: 1 µM
Pseudomonas aeruginosa [18]
  MBC: 64 µM
Escherichia coli [19]
  MIC95: 1 µM
Escherichia coli [20]
  MBC: 2 µM
Pseudomonas aeruginosa [21]
  MBC: > 64 µM
Escherichia coli [22]
  MBC: 4 µM
Acinetobacter baumannii [23]
  MIC95: 4 µM
Salmonella typhimurium [24]
  MBC: 8 µM
[25]
  MIC95: 4 µM
Pseudomonas aeruginosa [26]
  MBC: 8 µM
Escherichia coli [27]
  MBC: > 128 µM
[28]
  MBC: 8 µM
Escherichia coli [29]
  MBC: 8 µM
Escherichia coli [30]
  MIC95: 2 µM
Escherichia coli [31]
  MIC95: 2 µM
Escherichia coli [32]
  MBC: > 128 µM
Salmonella typhimurium [33]
  MIC95: 8 µM
Escherichia coli [34]
  MBC: 2 µM
Salmonella typhimurium [35]
  MIC95: 4 µM
Escherichia coli [36]
  MBC: 2 µM
Pseudomonas aeruginosa [37]
  MBC: 64 µM
Pseudomonas aeruginosa [38]
  MIC95: 32 µM
Klebsiella pneumoniae [39]
  MIC95: 8 µM
Acinetobacter baumannii [40]
  MBC: 4 µM
Pseudomonas aeruginosa [41]
  MIC95: 32 µM
Escherichia coli [42]
  MBC: 4 µM
